“And” between values parts separate entries of the source, which are not always exact repeats. Equal values may be shown once.
Test system: diabetes induced by STZ in SD rats
Experiment: Treatment of diabetes induced by STZ in rats
Assay type: in vivo, Sprague-Dawley rat
Settings: Group B (AopE+STZ+Compound 1), individual rats ID 1-4, before meals
Experimental: The effects of exemplary cyclohexnone compound 1 in treating a subject suffering from diabetes were investigated in a Sprague-Dawley rat model over a four week period. The example describes the results of such experiments.
In vivo models. A rat model of diabetes was established by low-dose streptozotocin (STZ, 60 mg/kg) injection in SD rats. Rats of the same batch fed with normal chow (NRC) were used as a control (n=4).
Study group. Group A: diabetes without treatment group, n=6; Group B: AopE+STZ+Compound 1, n=4. […] Rats of Group B (treatment group) have the following blood sugar data before meals: […]

## COC1=C(OC)C(O)C(C/C=C(\C)CC/C=C(\C)CCC=C(C)C)C(C)C1=O (centres unmarked) [Compound 1, 4-hydroxy-2,3-dimethoxy-6-methyl-5-(3,7,11-trimethyldodeca-2,6,10-trienyl)cyclohex-2-enone]
2nd week
  2nd week blood sugar level: 421 mg/dL and 330 mg/dL and 261 mg/dL and 484 mg/dL
4th week, untreated diabetic rats about 400-500 mg/dl, control about 100 mg/dl
  4th week Blood sugar level: 147 mg/dL and 149 mg/dL and 89 mg/dL and 388 mg/dL
